Here are results for 15 molecules from ChEMBL document CHEMBL1151032, “Local constrained shifty pseudopeptides inhibitors of rasfarnesyl transferase” (Bioorg Med Chem Lett, 1995).

In general, IC50 refers to the point on the concentration scale where inhibition reaches its midpoint. A low value points to inhibition by little substance. In general, inhibition refers to the change of the read-out against control, counted positive when it falls. Read a high inhibition as a strong effect.

The target of assay [1] is T1, Protein farnesyltransferase (Homo sapiens, UniProt P49354+P49356). The assay can be described thus: In vitro inhibition of farnesyl transferase. Format: protein-complex assay.
For assay [2], the target named is T2, Protein farnesyltransferase (Mus musculus, UniProt Q61239+Q8K2I1). Kind of assay: Inhibition of farnesyl transferase in NIH3T3 cell based assay in non-reducing (-DTT) conditions. Format: functional.
The target of assay [3] is T2, Protein farnesyltransferase. Kind of assay: Inhibition of farnesyl transferase in NIH3T3 cell based assay under reducing (+DTT) conditions. Format: functional.
Assay [4] has as its target T1, Protein farnesyltransferase. Kind of assay: In vitro inhibition of Human farnesyl transferase. Format: protein-complex assay.
For assay [5], the target named is Protein farnesyltransferase (Bos taurus, UniProt P29702+P49355). Kind of assay: In vitro inhibition of bovine farnesyl transferase. Format: protein-complex assay.
Assay [6] deals with NIH3T3. Kind of assay: Inhibition of Ki-Ras-transformed NIH3T3 cell growth at 1 uM. The settings on record: Mus musculus. Format: functional.
Assay [7] has as its system NIH3T3. The assay can be described thus: Inhibition of Ha-Ras-transformed NIH3T3 cell growth at 10 uM. Format: functional. The settings on record: Mus musculus.
Assay [8] has as its system NIH3T3. The assay can be described thus: Inhibition of Ha-Ras-transformed NIH3T3 cell growth at 1 uM. The following applies: Mus musculus. It is filed as functional.
The test system of assay [9] is NIH3T3. Kind of assay: Inhibition of Ha-Ras-transformed NIH3T3 cell growth at 5 uM. It is filed as functional. The following applies: Mus musculus.
The subject of assay [10] is NIH3T3. Kind of assay: Inhibition of Ki-Ras-transformed NIH3T3 cell growth at 5 uM. Format: functional. The settings on record: Mus musculus.
Assay [11] deals with NIH3T3. Kind of assay: Inhibition of Ki-Ras-transformed NIH3T3 cell growth at 10 uM. Format: functional. The settings on record: Mus musculus.
Assay [12] relates to NIH3T3. The assay can be described thus: Inhibition of v-Raf-transformed NIH3T3 cell growth at 10 uM. It is filed as functional. The following applies: Mus musculus.
The target in assay [13] is T1, Protein farnesyltransferase. The assay can be described thus: In vitro inhibition of farnesyl transferase enzyme (inactive). It is filed as protein-complex assay.

Bounds are passed on as bounds.

On to `CSCC[C@H](NC(=O)[C@@H]1Cc2ccccc2CN1C(=O)CN(CCSSCCN(CC(=O)N1Cc2ccccc2C[C@H]1C(=O)N[C@@H](CCSC)C(=O)O)C(=O)OC(C)(C)C)C(=O)OC(C)(C)C)C(=O)O`, for which the values for the IC50 in [1], in [2] and in [3] were above 100 µM, above 1000 µM and above 1000 µM, respectively.
Molecule `CSCC[C@H](NC(=O)[C@@H]1Cc2ccccc2CN1C(=O)[C@H](C(C)C)N(C)C(=O)[C@@H](N)CS)C(=O)O` registered an IC50 in assay [4] of 0.005 µM.
Molecule `CSCC[C@H](NC(=O)[C@H](Cc1ccccc1)NC(=O)[C@@H](NC[C@@H](N)CS)C(C)C)C(=O)O` showed an IC50 in [5] of 0.023 µM.
`CSCC[C@H](NC(=O)[C@@H]1Cc2ccccc2CN1C(=O)CN(CCS)C(=O)OC(C)(C)C)C(=O)O`: in assay [1], the IC50 is above 100 µM.
`CSCCC(NC(=O)C1Cc2ccccc2CN1CC(=O)NCCS)C(=O)O` (stereo not given): 2 µM corresponded to half-maximal inhibition in assay [1] (IC50).
In turn, `CSCC[C@H](NC(=O)[C@@H]1Cc2ccccc2CN1C(=O)CNCCS)C(=O)O` displayed an IC50 in assay [1] of 0.1 µM.
The molecule `COC(=O)[C@H](CCSC)NC(=O)[C@@H]1Cc2ccccc2CN1C(=O)CNCCS` had an IC50 in [1] of 0.29 µM.
Consider `COC(=O)[C@H](CCSC)NC(=O)[C@@H]1Cc2ccccc2CN1C(=O)CN(CCSSCCN(CC(=O)N1Cc2ccccc2C[C@H]1C(=O)N[C@@H](CCSC)C(=O)OC)C(=O)OC(C)(C)C)C(=O)OC(C)(C)C`, for which the values for the IC50 in [1], in [2] and in assay [3] were above 100 µM, above 1000 µM and above 1000 µM, respectively.
In the case of `COC(=O)[C@H](CCSC)NC(=O)[C@@H]1Cc2ccccc2CN1C(=O)CNCCSSCCNCC(=O)N1Cc2ccccc2C[C@H]1C(=O)N[C@@H](CCSC)C(=O)OC`, the inhibition at 1 µM in [6] is 24%; in [8], 9%. Further, the inhibition at 10 µM was 91% in assay [7], 97% in assay [11] and 9% in assay [12]. For the same molecule, the inhibition at 5 µM in assay [9] is 80%; in assay [10], 89%. For the same molecule, the IC50 in assay [1] worked out at 0.145 µM; in assay [2], 100 µM; in [3], 100 µM.
As to `CSCCC(NC(=O)C1Cc2ccccc2CN1CC(=O)NCCSSCCNC(=O)CN1Cc2ccccc2CC1C(=O)NC(CCSC)C(=O)O)C(=O)O` (stereo not given), the 50% inhibitory concentration (IC50) result in assay [13] is “Not Active”.
Turning to `CSCC[C@H](NC(=O)[C@@H]1Cc2ccccc2CN1C(=O)CNCCSSCCNCC(=O)N1Cc2ccccc2C[C@H]1C(=O)N[C@@H](CCSC)C(=O)O)C(=O)O`, the IC50 in [1] was 0.05 µM; in assay [2], above 1000 µM; in assay [3], above 1000 µM.
With `COC(=O)[C@H](CCSC)NC(=O)[C@@H]1Cc2ccccc2CN1C(=O)CN(CCS)C(=O)OC(C)(C)C`, the IC50 in assay [1] was above 100 µM.
Take `COC(=O)C(CCSC)NC(=O)C1Cc2ccccc2CN1CC(=O)NCCSSCCNC(=O)CN1Cc2ccccc2CC1C(=O)NC(CCSC)C(=O)OC` (stereo not given): the IC50 result in assay [13] was “Not Active”.
With `COC(=O)C(CCSC)NC(=O)C1Cc2ccccc2CN1CC(=O)NCCS` (stereo not given), the IC50 entry in assay [13] was “Not Active”.
`CSCC[C@H](NC(=O)[C@H](Cc1ccccc1)NC[C@@H](NC[C@@H](N)CS)C(C)C)C(=O)O`: the IC50 in assay [5] stood at 0.021 µM.
